The record followed here is ChEMBL document CHEMBL1147134, “Indium-labeled macrocyclic conjugates of naltrindole: high-affinity radioligands for in vivo studies of peripheral delta opioid receptors” (J Med Chem, 2007).

The structures appear in SMILES notation.

The target of one data set is Mu-type opioid receptor (Cavia porcellus, UniProt P97266). As to the kind of experiment: Displacement of [3H]DAMGO from mu opioid receptor in guinea pig brain membranes. Type of data set: cell membranes, Membrane. Background: Loss of bound radioactivity is the signal in a displacement assay; it reports binding, not function.
Data set [1] is described as follows: Selectivity for mouse brain delta opioid receptor over guinea pig brain mu opioid receptor.
Data set [2] addresses Kappa-type opioid receptor (Cavia porcellus, UniProt P41144). As to the kind of experiment: Displacement of [3H]U-69593 from kappa opioid receptor in guinea pig brain membranes. The data set is classed as cell membranes, Membrane.
Data set [3] concerns the target Delta-type opioid receptor (Mus musculus, UniProt P32300). As to the kind of experiment: Displacement of [3H]NTI from delta opioid receptor in CD1 mouse brain membranes. Type of data set: cell membranes, Membrane.
The nature of data set [4]: Selectivity for mouse brain delta opioid receptor over guinea pig brain kappa opioid receptor.
The nature of data set [5]: Lipophilicity, log D at pH7.4. Type of data set: physicochemical. The note with it: buffer, pH 7.4.

Chain of Mu-type opioid receptor (P97266 whole entry): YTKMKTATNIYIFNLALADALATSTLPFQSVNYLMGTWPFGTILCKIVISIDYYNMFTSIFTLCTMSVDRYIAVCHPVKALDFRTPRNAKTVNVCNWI
Chain of Kappa-type opioid receptor (P41144 whole entry): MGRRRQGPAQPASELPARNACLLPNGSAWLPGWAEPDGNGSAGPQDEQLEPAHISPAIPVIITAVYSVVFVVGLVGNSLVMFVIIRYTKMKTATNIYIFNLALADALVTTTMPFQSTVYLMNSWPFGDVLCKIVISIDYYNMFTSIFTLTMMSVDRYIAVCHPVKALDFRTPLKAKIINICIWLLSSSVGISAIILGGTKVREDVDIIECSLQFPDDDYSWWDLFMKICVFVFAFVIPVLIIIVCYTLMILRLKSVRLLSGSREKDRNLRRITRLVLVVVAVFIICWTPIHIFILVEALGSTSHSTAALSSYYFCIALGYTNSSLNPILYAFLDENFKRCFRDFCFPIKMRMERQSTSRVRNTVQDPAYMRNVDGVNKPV
Chain of Delta-type opioid receptor (P32300 whole entry): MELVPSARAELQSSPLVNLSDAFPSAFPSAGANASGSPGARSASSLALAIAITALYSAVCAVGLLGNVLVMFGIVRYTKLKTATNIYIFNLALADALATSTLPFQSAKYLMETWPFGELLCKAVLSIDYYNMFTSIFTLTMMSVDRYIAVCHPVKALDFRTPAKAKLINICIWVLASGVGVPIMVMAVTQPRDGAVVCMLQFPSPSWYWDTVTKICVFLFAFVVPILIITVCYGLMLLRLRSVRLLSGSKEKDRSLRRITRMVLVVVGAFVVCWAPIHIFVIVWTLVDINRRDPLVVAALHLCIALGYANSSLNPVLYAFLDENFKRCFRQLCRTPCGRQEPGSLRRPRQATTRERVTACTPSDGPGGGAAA

As usually defined, the Ki is a measure of affinity in units of concentration, obtained from inhibition or displacement. High values mean lower affinity, low ones higher affinity. With `O=C(O)CN1CCN(CCn2c3c(c4ccccc42)C[C@@]2(O)[C@H]4Cc5ccc(O)c6c5[C@@]2(CCN4CC2CC2)[C@@H]3O6)CCN(CC(=O)O)CCN(CC(=O)O)CC1`, the Ki on Mu-type opioid receptor was determined as 1.75 µM; in data set [2], 2.01 µM; in data set [3], 0.0049 µM. The results for the Ratio Ki in data set [1] and in data set [4] were 357 and 410, respectively.

The term logD denotes the decadic logarithm of the distribution of all forms, ionised or not, between an organic phase and buffer at a given pH. As to `Oc1ccc2c3c1O[C@H]1c4[nH]c5ccccc5c4C[C@@]4(O)[C@@H](C2)N(CC2CC2)CC[C@]314` [NALTRINDOLE], the inhibitory constant (Ki) at Mu-type opioid receptor was 0.0339 µM; in data set [2], 0.0149 µM. In addition, the pH-dependent lipophilicity (logD) in data set [5] was 2.41.

Take `O=C(O)CN1CCN(CCCCCn2c3c(c4ccccc42)C[C@@]2(O)[C@H]4Cc5ccc(O)c6c5[C@@]2(CCN4CC2CC2)[C@@H]3O6)CCN(CC(=O)O)CCN(CC(=O)O)CC1`: the Ki on Mu-type opioid receptor is 0.0482 µM; in data set [2], 0.0262 µM; in data set [3], 0.0002 µM. Further, the Ratio Ki in data set [1] was determined as 241; in data set [4], 131.
